Measured values from patent US9695133B2, “Quinazolinone-based oncogenic-RAS-selective lethal compounds and their use” (THE TRUSTEES OF COLUMBIA UNIVERSITY IN THE CITY OF NEW YORK, priority 2012, dated 2017).
Read-outs that look alike come from different tables or passages of the source.

Assays:
[1] = Water solubility by microplate nephelometer; format: physicochemical
Method: The water solubility was determined using a microplate nephelometer (NEPHELOstar, BMG labtech, Cary, N.C.).

[2] = Mouse liver microsome metabolic stability test; format: in vitro ADME; details: mouse liver microsome assay

Row | SMILES | solubility ([1]; water, nephelometry) | metabolic stability [2] | solubility [1]
1 | CC(C)Oc1ccc(CN2CCNCC2)cc1-n1c(CN2CCN(C(=O)COc3ccc(Cl)cc3)CC2)nc2ccccc2c1=O [PE, 2-((4-(2-(4-chlorophenoxy)ethanoyl)piperazin-1-yl)methyl)-3-(2-isopropoxy-5-(piperazin-1-ylmethyl)phenyl)quinazolin-4(3H)-one] | improved solubility | improved metabolic stability in comparison to erastin | –
2 | CCOc1ccccc1-n1c(C(C)N2CCN(C(=O)COc3ccc(Cl)cc3)CC2)nc2ccccc2c1=O (stereo not shown) [erastin] | – | metabolic instability | poor solubility
